Source: a melting point compilation (Tetko et al.)

Row | Structure (SMILES) | melting point
1 | O=C(O)C1CCc2cn[nH]c2C1 (stereo unspecified) | 234 to 236 °C
2 | O=C(O)C1CC(=O)N(C2CCCCCC2)C1 (stereo unspecified) | 165 to 167 °C
3 | Cc1ccc(-n2nnc(C(=O)O)c2C2CC2)cc1 | 173 to 175 °C
4 | O=C(O)C1(c2cccc(C(F)(F)F)c2)CCCC1 | 111 to 113 °C
5 | COC(=O)c1sc(N2CCOCC2)nc1N | 156 to 158 °C
6 | CC(NCc1ccc(F)cc1)C(=O)O (stereo unspecified) | 283 to 285 °C
7 | Clc1ccc(NCc2ccccc2)cc1 | 47 to 49 °C
8 | O=C(O)c1ccc(CN2C(=O)CNC2=O)cc1 | 282 to 284 °C
9 | O=C(O)c1ccc(N2CCOCC2)c([N+](=O)[O-])c1 | 186 to 188 °C
10 | O=C1CSc2ccc(C(=O)O)cc2N1 | 251 to 253 °C
11 | CCOC(=O)CCS(=O)(=O)c1ccc(F)cc1 | 38 to 40 °C
12 | Nc1nc(CN2CCOCC2)cs1 | 145 to 150 °C
13 | NNC(=S)NCc1ccc(F)cc1 | 140 to 142 °C
14 | O=C(Nc1ccccc1I)C(F)(F)F | 105 to 107 °C
15 | Nc1ccc2c(c1)C(=O)NS2(=O)=O | 286 to 288 °C
16 | N#Cc1ccc(N2CCNC(=O)C2)cc1 | 224 to 226 °C
17 | Cc1nc(C2COCCN2C(=O)OC(C)(C)C)no1 (stereo unspecified) | 96 to 98 °C
18 | Cc1ccc(S(=O)(=O)N(C)c2ccc(C(=O)O)cc2)cc1 | 188 to 190 °C
19 | NNC(=O)CCN1CCCC1 | 137 to 139 °C
20 | CC(C)C(C#N)NC(=O)c1ccccc1 (stereo unspecified) | 106 to 108 °C
21 | O=C(O)CCc1nccs1 | 123 to 125 °C
22 | NS(=O)(=O)c1cc(C(F)(F)F)ccc1F | 127 to 129 °C
23 | N#Cc1cc2ccccn2c1 | 68 to 70 °C
24 | CN1CCC(NCCO)CC1 | 37 to 39 °C
25 | O=[N+]([O-])c1cc(Cl)ccc1S(=O)(=O)Cl | 74 to 76 °C
26 | Cc1cccc(NC(=O)C(C)Cl)c1 (stereo unspecified) | 128 to 130 °C

Row | Structure (SMILES) | melting point
27 | O=C(O)C(Cc1c[nH]c2ccccc12)NS(=O)(=O)c1ccc(Cl)c(C(F)(F)F)c1 (stereo unspecified) | 185 to 187 °C
28 | CC(=O)c1sc(Cc2ccccc2)nc1C | 53 to 55 °C
29 | O=C(O)c1cnn(-c2ccc(C(F)(F)F)cn2)c1C(F)(F)F | 162 to 164 °C
30 | Nc1cc(Cl)c(NC(=O)c2ccncc2)c(Cl)c1 | 233 to 235 °C
31 | COc1ccc(C(=O)NN)c(OC)c1 | 112 to 114 °C
32 | O=C(O)c1cc(S(=O)(=O)Nc2ccccc2F)c[nH]1 | 207 to 209 °C
33 | O=S(=O)(Cl)Cc1cc(-c2ccccc2)no1 | 115 to 117 °C
34 | O=C(O)c1cccc(S(=O)(=O)N2CCCCCC2)c1 | 173 to 175 °C
35 | O=C(O)c1ccc(COc2ccccc2)o1 | 169 to 171 °C
36 | Sc1ccc(Cl)cn1 | 214 to 216 °C
37 | CN(C)c1ccc(NCc2ccc3ccccc3n2)cc1 | 104 to 106 °C
38 | Cc1sc(-n2cccc2)c(C(=O)O)c1C | 156 to 158 °C
39 | CC(C)(C)OC(=O)c1nnsc1N | 134 to 136 °C
40 | Cn1c(CCl)nc2c1c(=O)[nH]c(=O)n2C | 269 to 271 °C
41 | CC(Cl)C(=O)NCC(=O)Nc1ccc(F)c(F)c1F (stereo unspecified) | 128 to 130 °C
42 | O=C(O)Cc1coc2cc(O)ccc12 | 127 to 129 °C
43 | Cc1cc2cn[nH]c2cc1N | 219 to 221 °C
44 | CC(=O)NCc1ccc(S(=O)(=O)Cl)s1 | 80 to 82 °C
45 | CSc1nc(C)nc(C)c1C(=O)O | 223 to 225 °C
46 | Nc1nc2cc(Cc3ccccc3)ccc2o1 | 151 to 153 °C
47 | Nc1cc(NC(=O)Cn2cccnc2=O)ccc1F | 251 to 253 °C
48 | O=C(O)Cc1occc1C(=O)O | 204 to 206 °C
49 | O=C(O)c1cc([N+](=O)[O-])cnc1Br | 135 to 137 °C
50 | O=C(O)c1cc2c(s1)CCCC2 | 179 to 181 °C
51 | COc1ccc(C2C(C(N)=O)CC(=O)N2C)cc1 (stereo unspecified) | 208 to 210 °C
52 | Cc1c(NS(=O)(=O)c2ccc(N)c(N)c2)c(=O)n(-c2ccccc2)n1C | 233 to 235 °C

Row | Structure (SMILES) | melting point
53 | O=c1[nH]c(CN2CCOCC2)nc2sc3c(c12)CCCC3 | 162 to 164 °C
54 | CC(=O)Nc1cc(C)c(S(=O)(=O)Cl)cc1Br | 109 to 111 °C
55 | Cc1ccc(-c2nnc(Cl)c3ccccc23)cc1C | 241 to 243 °C
56 | O=C1C(=O)N(Cc2ccc(Cl)cc2)c2ccccc21 | 163 to 165 °C
57 | O=C(O)CN1CCCNC1=O | 248 to 250 °C
58 | O=C(O)c1ccc(Cc2nnc[nH]2)cc1 | 219 to 221 °C
59 | COc1ccc(NS(=O)(=O)c2ccc3oc(S)nc3c2)cc1 | 175 to 177 °C
60 | Cc1ccsc1-c1nnc(N)[nH]1 | 189 to 191 °C
61 | O=C1CSC(=S)N1c1ccc(F)cc1 | 137 to 139 °C
62 | NC(=O)c1csc(C=O)c1 | 155 to 157 °C
63 | CCn1c2ccccc2c2cc(N=C=S)ccc21 | 118 to 120 °C
64 | Cc1cc(S(N)(=O)=O)c(C)s1 | 139 to 141 °C
65 | NC(=S)NC1CCOc2ccccc21 (stereo unspecified) | 178 to 180 °C
66 | COc1n[nH]c(N)c1C#N | 179 to 181 °C
67 | Nc1ccc2ccn(Cc3ccccc3)c2c1 | 119 to 121 °C
68 | N#Cc1cccnc1NCc1cccc(C(=O)O)c1 | 197 to 199 °C
69 | CCc1sc(C(=O)O)cc1C | 98 to 100 °C
70 | CSCCC(NC(=O)c1ccc2ccccc2n1)C(=O)O (stereo unspecified) | 131 to 133 °C
71 | Clc1cc(-n2cccn2)ccn1 | 111 to 113 °C
72 | Cc1cc(S)n2c(nc3ccccc32)c1C#N | 198 to 200 °C
73 | Nc1nc(Cc2ccccc2)ns1 | 133 to 135 °C
74 | COCCNc1cc2nc[nH]c(=O)c2cc1[N+](=O)[O-] | 259 to 261 °C
75 | CN(C)c1cc2ccccc2c(=O)[nH]1 | 185 to 187 °C
76 | O=C(O)c1cc2c(F)c(F)ccc2[nH]1 | 209 to 211 °C
77 | Cc1ccc(-c2csc(N)n2)s1 | 129 to 131 °C
78 | O=C(O)c1ncccc1C(F)(F)F | 107 to 109 °C

Row | Structure (SMILES) | melting point
79 | CC(Cl)C(=O)N1CCSc2ccccc21 (stereo unspecified) | 81 to 83 °C
80 | CNCc1cn(C)c(=O)n(C)c1=O | 128 to 130 °C
81 | Cc1ccc(N)cc1C(=O)N(C)C | 114 to 116 °C
82 | NC(=O)Cc1ccccc1F | 158 to 160 °C
83 | COc1nc2sccn2c1C=O | 130 to 132 °C
84 | COC(=O)c1c(C)[nH]c(C(=O)CCl)c1C | 166 to 168 °C
85 | COc1cc(Cl)c(S(=O)(=O)Cl)cc1Cl | 76 to 78 °C
86 | Cc1ccc(NCCC#N)cc1 | 110 to 112 °C
87 | CC(C)NC(=O)Nc1cccc(C(=O)O)c1 | 239 to 241 °C
88 | O=C1CCCc2nc(-c3ccc(F)cc3)sc21 | 142 to 144 °C
89 | O=C(O)c1ccc(S(=O)(=O)Nc2ccccc2Cl)cc1 | 111 to 113 °C
90 | Cc1onc(-c2ccncc2)c1C(=O)O | 249 to 251 °C
91 | COc1ccc(S(=O)(=O)N(C)C)cc1NC(=O)C(C)Cl (stereo unspecified) | 107 to 109 °C
92 | O=C(Nc1ccccc1C(=O)O)c1ccccc1 | 178 to 182 °C
93 | CC(O)(CN)c1cccs1 (stereo unspecified) | 55 to 57 °C
94 | Cc1cc(Br)c2c(c1)C(=O)CCO2 | 84 to 86 °C
95 | Cc1n[nH]c(-c2ccccc2N)n1 | 153 to 155 °C
96 | NC(=S)c1cncnc1N | 197 to 199 °C
97 | CN(C)CC(O)Cn1cc(N)cn1 (stereo unspecified) | 68 to 70 °C
98 | Nc1ccc(N2C(=O)CCC2=O)cc1 | 239 to 241 °C
99 | Cc1cc(N2CCSCC2)ccc1N | 79 to 81 °C
100 | COc1cc(C(=O)O)ccc1OCc1ccc(Br)cc1 | 224 to 226 °C
101 | O=C1CN(S(=O)(=O)c2cccc([N+](=O)[O-])c2)CCN1 | 217 to 219 °C
